Source: US11090275B2, “Compositions comprising cannabidiol and second therapeutic agents for the treatment of cancer” (JAY PHARMA, INC., priority 2015, dated 2021)
Read-outs that look alike come from different tables or passages of the source.

Assays:
HL-60 cells [1] = test: XTT cell viability, HL-60 cells; assay type: cell-based, human; settings: for IC50: Homo sapiens
Procedure: (§1) human HL-60, myeloblastic leukemia and CCRF-CEM, acute lymphoblastic leukemia cell line were cultured in RPMI-1640 supplemented with 10% (v/v) heat-inactivated fetal calf serum, 2 mM L-glutamine, 100U/ml penicillin and 100 μg/ml streptomycin. MCF-7, breast cancer and A-172, glioblastoma cell lines were cultured in DMEM supplemented with 10% (v/v) heat-inactivated fetal calf serum, 2 mM L-glutamine, 100U/ml penicillin and 100 μg/ml streptomycin. Cultures were maintained at 37° C. in a humidified atmosphere with 5% CO2 and maintained in exponential phase by transfer to fresh medium every 2-3 days. Experiments were conducted in serum free medium and 5% or 10% FCS medium. The trypanblue dye exclusion method was used for cell counting performed using a hemocytometer under light microscope.

HL-60 tumor = test: Mouse xenograft model transplanted with HL-60 cells; assay type: in vivo; settings: 5 mg/kg CBD, 10 mg/kg CL, alone and combination, peritumoral; days 7 through 14
Procedure: NOD/SCID mice were bred and housed at animal facility of Ben-Gurion University of the Negev, Israel. All animals were used between 7-8 weeks old of age. For induction of tumor, mice were irradiated with 2.7 Gy X ray radiation for 2 min. The following 5 hours, mice were injected with 1 million viable HL-60 cells on right flank of mice. Mice were monitored for tumorigenesis. Tumors were measured during 14 days and their volumes (mm^3) were calculated as (d^2XD)/2 (where d is the shortest and D is the longest diameter of the tumor in mm). […] The injection was repeated once a day, 5 days per week, and tumor volumes were checked twice a week until the vehicle died and the remained animals were sacrificed.

HL-60 cells [2] = test: Morphological quantification of apoptosis (acridine orange/ethidium bromide), HL-60; assay type: cell-based, human; settings: 5% FCS medium, 24 and 48h
Procedure: (§2) for determination of apoptosis, cells were harvested (650 g, 7 min) and stained with acridine orange/ethidium bromide at a final concentration of 0.05 mg/ml. This method allows distinguishing between live, necrotic and apoptotic cells (FIG. 11). […] At least 100 cells were counted under a fluorescence microscope and the percentage of affected cells was calculated.

CCRF-CEM cells [3] = test: XTT cell viability, CCRF-CEM cells; assay type: cell-based, human; settings: cannabidiol at 5 μM or more, 24h
Procedure: as §1

A-172 cells = test: XTT cell viability, A-172 cells; assay type: cell-based, human; settings: cannabidiol at 5 μM or more, 48h
Procedure: as §1

MCF-7 cells = test: XTT cell viability, MCF-7 cells; assay type: cell-based; settings: cannabidiol at 5 μM or more, 24h
Procedure: as §1

Mcl-1 = test: Western blot of Mcl-1 in CCRF-CEM cells; assay type: cell-based, human; settings: 20 μM cannabidiol, by 3h of treatment
Procedure: Cells washed twice with ice cold PBS and lysed in RIPA buffer (50 mM Tris-HCl, 0.1% NP-40, 1 mM DTT, 0.25M sucrose, 2 mM MgCl2, pH 7.4) for 30 min on ice. After centrifugation, the post-nuclear supernatant containing the cell soluble fraction were loaded on to a 12% SDS-PAGE gel. After electrophoresis, the gels were blotted onto a PVDF membrane (Bio-Rad, Hercules, Calif.), blocked with 5% (w/v) milk for overnight at 4° C. temperature, washed briefly in Tris-Buffered Saline Tween-20 (TBST), and then probed overnight at 4° C. with the anti-mouse human anti-MC1-1 and calreticulin (CRN) primary antibodies. Primary antibody binding was detected with anti-mouse IgG conjugated to horseradish peroxidase (Jackson Immunoresearch, Avondale, Pa.), and made visible by enhanced chemiluminescence (ECL) (Biological Industries, Israel), according to manufacturer's instructions. Antibodies against MCl-1 and calreticulin (CRN) were purchased from Santa Cruz, Calif., USA.

CCRF-CEM cells [4] = test: Morphological quantification of apoptosis (acridine orange/ethidium bromide), CCRF-CEM; assay type: cell-based, human; settings: serum free and 5% FCS medium, 24h
Procedure: as §2

SMILES	effect on cell viability at very low concentration (HL-60 cells [1]; 0.2 μM, serum free condition, 24h)	sensitivity of cells to CBD (HL-60 cells [1]; 10% FCS medium, 24h)	IC50 (HL-60 cells [1]; HL-60, 24 h, read-out: IC50, cell viability)	IC50 (HL-60 cells [1]; HL-60, 48 h, read-out: IC50 value, cell viability)	number of viable cells (HL-60 cells [1]; cannabidiol at 5 μM or more, 24h and 48 h)	HL-60 tumor growth (HL-60 tumor)	induction of apoptosis (HL-60 cells [2])	number of viable cells (CCRF-CEM cells [3])	number of viable cells (A-172 cells)	number of viable cells (MCF-7 cells)	Mcl-1 expression (Mcl-1)	induction of apoptosis (CCRF-CEM cells [4])
C=C(C)[C@@H]1CCC(C)=C[C@H]1c1c(O)cc(CCCCC)cc1O [CBD, Cannabidiol]	profound effect on reduction of cell viability	less sensitive	0.26 µM	16 µM	significant reduction in the number of viable cells	significant suppression	dose and time dependent induction of apoptosis	significant reduction in the number of viable cells	significant reduction in the number of viable cells	significant reduction in the number of viable cells	down regulated	dose and time dependent induction of apoptosis
CCN(CC)CCOc1ccc(C(=C(Cl)c2ccccc2)c2ccccc2)cc1 [clomiphene]						significant suppression						
